One assay concerns the target NS3/NS4 complexes (Hepatitis C virus genotype 1a, UniProt P27958). The assay is described as follows: NS3/NS4 inhibition activity (IC50). Type of assay: biochemical. An outline of the steps: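 Buffer: 50 mM Tris-HCl (pH 7.5), 10 mM DTT, 25 μM NS4A peptide, 0.6 mM LDAO and 15% glycerol. Assays were run at 23 °C with preformed NS3/NS4 complex, and the compound concentration giving inhibition was derived as an IC50.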

For a further assay, the system named is hepatitis C replicon. The experiment in a line: hepatitis C replicon EC50. Conditions: Hepatitis C virus, hepatitis C replicon, read-out: EC50. The assay is classed as cell-based. The text has this: NS3-NS4 inhibition activity can be determined using known assay methods.

Each structure is given as a SMILES string. Read-outs that look alike come from different tables or passages of the source.

As usually defined, the IC50 is the concentration needed to halve the response being measured. A word on the EC50: it is the concentration that produces a half-maximal response.

NS3/NS4 complexes, sequence (P27958 1027-1657): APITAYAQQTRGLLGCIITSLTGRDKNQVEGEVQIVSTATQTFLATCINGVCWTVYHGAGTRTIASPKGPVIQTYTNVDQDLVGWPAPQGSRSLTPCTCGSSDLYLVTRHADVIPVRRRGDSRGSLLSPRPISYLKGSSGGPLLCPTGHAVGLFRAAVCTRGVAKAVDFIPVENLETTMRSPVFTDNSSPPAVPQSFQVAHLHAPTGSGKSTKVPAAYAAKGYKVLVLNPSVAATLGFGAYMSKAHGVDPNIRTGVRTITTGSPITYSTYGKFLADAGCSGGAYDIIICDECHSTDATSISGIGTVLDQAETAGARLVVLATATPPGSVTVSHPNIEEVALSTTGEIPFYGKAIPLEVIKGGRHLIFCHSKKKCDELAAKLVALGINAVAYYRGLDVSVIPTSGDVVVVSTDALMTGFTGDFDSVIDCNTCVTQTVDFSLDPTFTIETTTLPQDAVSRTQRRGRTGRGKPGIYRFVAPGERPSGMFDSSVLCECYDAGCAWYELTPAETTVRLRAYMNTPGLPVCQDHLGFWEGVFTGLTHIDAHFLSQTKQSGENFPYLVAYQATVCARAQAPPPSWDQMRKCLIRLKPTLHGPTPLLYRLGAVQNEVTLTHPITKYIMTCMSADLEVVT
NS3/NS4 complexes, sequence (P27958 1658-1711): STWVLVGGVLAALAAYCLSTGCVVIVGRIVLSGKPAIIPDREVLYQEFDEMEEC

`COc1ccc2c(O[C@@H]3C[C@H]4C(=O)N[C@]5(C(=O)NS(=O)(=O)C6CC6)C[C@H]5/C=C\CCCCC[C@H](Nc5cccc(OC(F)(F)F)c5)C(=O)N4C3)cc(-c3nc(C(C)C)cs3)nc2c1C` [Compound 377]: the IC50 on NS3/NS4 complexes (Table 2, read-out: IC50) is < 0.01 µM. In addition, the EC50 in the assay on hepatitis C replicon (Table 2) was < 0.01 µM.
Regarding `COc1ccc2c(O[C@@H]3C[C@H]4C(=O)N[C@]5(C(=O)NS(=O)(=O)C6(C)CC6)C[C@H]5/C=C\CCCCC[C@H](Nc5cccc(F)c5)C(=O)N4C3)cc(-c3nc(C(C)C)cs3)nc2c1C` [Compound 361], the IC50 on NS3/NS4 complexes (Table 2, read-out: IC50) was < 0.01 µM. Further, the EC50 in the assay with hepatitis C replicon (Table 2) was < 0.01 µM.
`CC1(S(=O)(=O)NC(=O)[C@@]23C[C@H]2/C=C\CCCCC[C@H](Nc2cc(F)cc(C(F)(F)F)c2)C(=O)N2C[C@H](Oc4nccc5ccccc45)C[C@H]2C(=O)N3)CC1` [Compound 346]: the IC50 on NS3/NS4 complexes (Table 2, read-out: IC50) is < 0.01 µM. Also, the EC50 in the assay on hepatitis C replicon (Table 2) was < 0.01 µM.
As for `CC1(S(=O)(=O)NC(=O)[C@@]23C[C@H]2/C=C\CCCCC[C@H](Nc2cccc(C(F)(F)F)c2)C(=O)N2C[C@H](Oc4nc5ccc(Br)cc5s4)C[C@H]2C(=O)N3)CC1` [Compound 223], the IC50 at NS3/NS4 complexes (Table 2, read-out: IC50) was < 0.01 µM. Also, in the assay with hepatitis C replicon (Table 2), the EC50 lay within 0.075 to 0.5 µM.
In the same order, the values of `COc1ccc2c(O[C@@H]3C[C@H]4C(=O)N[C@]5(C(=O)NS(=O)(=O)C6CC6)C[C@H]5/C=C\CCCCC[C@H](Nc5ccc(F)c(C(F)(F)F)c5)C(=O)N4C3)cc(-c3nc(C(C)C)cs3)nc2c1C` [Compound 447] are < 0.01 µM and < 0.01 µM.
On to `Cc1ccc2oc(O[C@@H]3C[C@H]4C(=O)N[C@]5(C(=O)NS(=O)(=O)C6CC6)C[C@H]5/C=C\CCCCC[C@H](NC(=O)OC(C)(C)C)C(=O)N4C3)nc2c1` [Compound 1030], for which the IC50 on NS3/NS4 complexes (Table 3, read-out: IC50) was < 0.01 µM. Further, the EC50 in the assay with hepatitis C replicon (Table 3) was 0.01 to 0.1 µM.
`CC(=O)O[C@@H]1C[C@H]2C(=O)N[C@]3(C(=O)N4CCC[C@H]4C(=O)NCc4ccccc4)C[C@H]3/C=C\CCCCC[C@H](NC(=O)OC(C)(C)C)C(=O)N2C1` [Compound 1061]: the IC50 on NS3/NS4 complexes (IC50, Table 3) was > 0.1 µM. Also, the EC50 in the assay on hepatitis C replicon (Table 3) is > 0.1 µM.
As to `CN(C)S(=O)(=O)NC(=O)[C@@]12C[C@H]1/C=C\CCCCC[C@H](NC(=O)OC(C)(C)C)C(=O)N1C[C@H](Oc3nc4ccccc4n3COCC[Si](C)(C)C)C[C@H]1C(=O)N2` [Compound 1143], the IC50 against NS3/NS4 complexes (IC50, Table 3) was < 0.01 µM. Also, in the assay with hepatitis C replicon (Table 3), the EC50 is > 0.1 µM.
`CC1(S(=O)(=O)NC(=O)[C@@]23C[C@H]2/C=C\CCCCC[C@H](Nc2ccccc2)C(=O)N2C[C@H](Oc4nc5ccc(Br)cc5s4)C[C@H]2C(=O)N3)CC1` [Compound 214]: the IC50 on NS3/NS4 complexes (Table 2, read-out: IC50) was < 0.01 µM. For the same compound, in the assay on hepatitis C replicon (Table 2), the concentration giving a half-maximal response (EC50) lay in the range of 0.075 to 0.5 µM.
In the same order, the values of `O=C1N[C@]2(C(=O)NS(=O)(=O)C3CC3)C[C@H]2/C=C\CCCCC[C@H](Nc2ccc(F)cc2)C(=O)N2C[C@H](Oc3nc4ccccc4s3)C[C@@H]12` [Compound 348] are < 0.01 µM and 0.075 to 0.5 µM.
As to `CC(C)(C)OC(=O)N[C@H]1CCCCC/C=C\[C@@H]2C[C@@]2(C(=O)NS(=O)(=O)C2(C)CC2)NC(=O)[C@@H]2C[C@@H](Oc3nc4cc(Cl)ccc4o3)CN2C1=O` [Compound 1046], at NS3/NS4 complexes (Table 3, read-out: IC50), the IC50 was < 0.01 µM. The EC50 in the assay on hepatitis C replicon (Table 3) was > 0.1 µM.
Take `COc1ccc2c(O[C@@H]3C[C@H]4C(=O)N[C@]5(C(=O)NS(=O)(=O)C6CC6)C[C@H]5/C=C\CCCCC[C@H](Nc5ccc(F)c(C(F)(F)F)c5)C(=O)N4C3)cc(-c3ccccc3)nc2c1` [Compound 356]: the IC50 at NS3/NS4 complexes (Table 2, read-out: IC50) is < 0.01 µM. Further, the EC50 in the assay with hepatitis C replicon (Table 2) was < 0.01 µM.
For the compound `CC1(S(=O)(=O)NC(=O)[C@@]23C[C@H]2/C=C\CCCCC[C@H](Nc2nc4ccccc4o2)C(=O)N2C[C@H](OC(=O)N4Cc5cccc(F)c5C4)C[C@H]2C(=O)N3)CC1` [Compound 1127], at NS3/NS4 complexes (Table 3, read-out: IC50), the IC50 was < 0.01 µM. Moreover, the EC50 with hepatitis C replicon (Table 3) lay within 0.01 to 0.1 µM.
In the same order, the values of `COc1ccc2nc(O[C@@H]3C[C@H]4C(=O)N[C@]5(C(=O)NS(=O)(=O)C6(C)CC6)C[C@H]5/C=C\CCCCC[C@H](NC(=O)OC(C)(C)C)C(=O)N4C3)sc2c1` [Compound 1016] are < 0.01 µM and 0.01 to 0.1 µM.
